The values that follow come from patent publication US20250235447A1, “METHODS FOR TREATING CARDIOVASCULAR CONDITIONS AND METHODS OF INCREASING THE EFFICIENCY OF CARDIAC METABOLISM” (IMBRIA PHARMACEUTICALS, INC., priority 2021, published 2025).

For data set [1] the following is noted: human, in vivo.
Experimental: (§2) Each subject participated in only 1 group during the study.
(§3) The blood samples were taken via an indwelling intravenous catheter or by direct venipuncture. The exact times of blood sampling were recorded in the eCRF.
A further data set in a line: clinical. The following applies: human, in vivo, 50 mg.
The conditions of data set [2]: human, in vivo. This is another data set of the same source.
Experimental: Subjects received multiple oral doses of an IR formulation of IMB-1018972 or placebo once every 12 hours (q12 h) for 14 consecutive days. Each subject participated in only 1 group during the study.
The doses were selected based upon the safety, tolerability, and PK data from the SAD part: • Group B1 multiple oral doses of an IR formulation of 150 mg IMB-1018972 (n=9) or matching placebo (n=3) twice daily (q12 h) for 14 days; on Day 14 only a single morning dose was administered • Group B2: multiple oral doses of an IR formulation of 50 mg IMB-1018972 (n=9) or matching placebo (n=3) q12 h for 14 days; on Day 14 only a single morning dose was administered
Before each morning dose, subjects fasted overnight for at least 10 hours following a snack on the evening before. On Days 1 and 14, subjects received a standardized breakfast that had to be consumed within 20 minutes. Dosing occurred at 30 minutes after the start of breakfast. Following dosing, subjects fasted for 4 hours until lunch. During fasting, fluids other than water were not allowed. On Days 2 to 13, breakfast was not standardized and was given within maximally 1 hour before dosing and consumed before dosing. No fasting after dosing was applicable on these days.
Data set [3] can be described thus: 28-day dog toxicity study (NOAEL and exposure). The following applies: from HED. The format is in vivo. As for the experimental part:
Based on the nonclinical toxicology data, it was considered that subjects in this clinical study were not at unreasonable risk of adverse effects. […] For a 60-kg individual, the NOAEL dose would be 6480 mg. With a 10-fold safety factor applied, this would allow for a maximum recommended starting dose (MRSD) of 648 mg/day.7,8 The planned starting dose in the current Phase 1 study was 50 mg, equivalent to 0.83 mg/kg/day for a 60-kg subject. This starting dose is less than 10% of the MRSD determined from the dog NOAEL and less than 1% of the dog NOAEL.
The relevant animal study was the 28-day dog study where the NOAEL for IMB-1018972 was 200 mg/kg/day.

A short description of data set [4]: FIH study: safety and tolerability (adverse events, laboratory, vital signs, ECG).
Experimental: AEs were recorded from (first) admission until completion of the follow-up visit. Any clinically significant observations in results of clinical laboratory, 12-lead ECGs, vital signs, or physical examinations were recorded as AEs.
A treatment-emergent AE (TEAE) was defined as any event not present prior to (the first) administration of the study drug or any event already present that worsened in either severity or frequency following exposure to the study drug.
The severity of the AEs was rated as mild, moderate, or severe; the relationship between the AEs and the study drug was indicated as none, unlikely, possibly, likely, or definitely. Adverse events assessed as possibly, likely, or definitely were considered related to the study drug; AEs assessed as none or unlikely were considered not related to the study drug.
The ECG was recorded using an ECG machine equipped with computer-based interval measurements (with no/minimal disturbance by procedures). The following ECG parameters were recorded: heart rate, PR-interval, QRS-duration, QT-interval, QTcF-interval, and the interpretation of the ECG profile by the Investigator.
Data set [5] in a line: Pharmacodynamic study in obese patients with Type 2 diabetes: preliminary safety data. The format is in vivo, human. As to the method:
(§1) This was a randomized study consisting of a population of 20 patients with Type 2 diabetes and a BMI≥30 kg/m^2. The first five patients were treated for four weeks; the subsequent 15 patients (patients 6-20) were treated for eight weeks (with five additional patients prn). Ten patients had hyperpolarized ^13C-pyruvate MRS.
The preliminary baseline characteristics of randomized participants is detailed in FIG. 52. The preliminary baseline characteristics of completers is detailed in FIG. 53. FIG. 54 details adverse events as of the data cut-off date of September 20. Nineteen patients were on the drug from approximately one to eight weeks. There were no SAEs. Seven subjects reported nine adverse events. Two subjects had three drug-related AEs. All AEs were mild or moderate in severity. […] Overall, the compound was well-tolerated.

Data set [6] can be described thus: FIH study, SAD part: plasma pharmacokinetics after single oral dose. The following applies: all blood samples of subjects that received IMB-1018972.
Experimental: as §2, §3
Data set [7] deals with myocardial energetics and metabolism. The experiment in a line: Pharmacodynamic study in obese patients with Type 2 diabetes (PCr/ATP, myocardial triglyceride, body weight). Format: in vivo, human. As for the experimental part: Results of a pharmacodynamic study to evaluate the impact of 200 mg BID of a composition of a compound with formula (X) on rest myocardial energetics (PCr/ATP) in obese individuals with type 2 diabetes are detailed in FIGS. 52-65. The key endpoints of the study were to evaluate the metabolic response, specifically the impact on PDH flux using hyperpolarized ^13C-pyruvate MRS, as a measure of the compound's ability to promote glucose oxidation and recouple glucose oxidation with glycolysis. Also assessed was the effect on cardiac systolic and diastolic function, measured by cardiac magnetic resonance (CMR) and transthoracic echocardiography (TTE), and the effect on cardiac steatosis using ^1H-MRS.
The primary objective is to evaluate the impact of 200 mg of formula (X) on rest and stress myocardial energetics (PCr/ATP). Other objectives include: to evaluate the metabolic response, specifically the impact on PDH flux using hyperpolarized ^13C-pyruvate MRS, as a measure of the compound's ability to promote glucose oxidation; to assess the effect on cardiac systolic and diastolic function, as measured by cardiac magnetic resonance (CMR) and transthoracic echocardiography (TTE); to measure the impact on myocardial steatosis.
as §1

[8] abbreviates: 200 mg, combined 4- and 8-week cohorts, interim data.

Experimental for clinical: as §2, §3

For orientation: Tmax means the time from dosing to the highest level. For the compound `COc1ccc(CN2CCNCC2)c(OC)c1OC` [trimetazidine], in data set [1], the “Time at which detectable concentrations generally appeared” value lay within 15 to 30 min. Further, in “clinical”, the Tmax was 8 h. In data set [2], the “Geometric mean Cmax lower, MAD Day 1 150 mg fed vs SAD single 150 mg fed” value is 32%.
Turning to `COc1ccc(CN2CCN(CCOC(=O)c3cccnc3)CC2)c(OC)c1OC` [IMB-1018972], the “NOAEL dose for a 60-kg individual” value in data set [3] was 6480 mg. Also, in data set [4] (FE arm of SAD part), the “Effect of fed dosing on number and incidence of TEAEs” value is “appeared to attenuate the number and incidence of TEAEs”. Besides, in data set [4] (MAD part), the “Subjects with TEAEs of flushing, SOC vascular disorders” value is 33.3%; the “Subjects with TEAEs, SOC general disorders and administration site conditions” value is 27.8%; the “Subjects with TEAEs, SOC musculoskeletal and connective tissue disorders” value amounted to 27.8%. The “Number of TEAEs of flushing (mild)” value in data set [4] (MAD part, 150 mg q12 h) is recorded as 7. Also, the “Subjects with TEAEs considered related to the study drug” value in data set [4] (MAD part, 6 of 18) is recorded as 33.3%. Moreover, the “Subjects with TEAEs considered not related to the study drug” value in data set [4] (MAD part, 11 of 18) was 61.1%. Further, in data set [4] (SAD part), the “Subjects with TEAEs, SOC gastrointestinal disorders” value stood at 16.7%; the “Subjects with TEAEs, SOC general disorders and administration site conditions” value stood at 20.8%; the “Subjects with TEAEs, SOC nervous system disorders” value turned out to be 29.2%; the “Subjects with TEAEs, SOC skin and subcutaneous tissue disorders” value is 16.7%. In addition, in data set [4] (SAD part), the “Subjects with TEAEs, SOC vascular disorders” value was determined as 29.2%; the “Subjects with drug-related TEAEs of flushing (vascular disorders)” value was 25%; the “Subjects with drug-related TEAEs, nervous system disorders” value came to 16.7%. Moreover, in data set [4] (SAD part, 7 of 24), the “Subjects with TEAEs considered related to the study drug” value is 29.2%. In addition, the Subjects reporting flushing in data set [4] (single 150 mg IMB-1018972, fasted, FE arm) is given as 2. Besides, the Subjects reporting flushing result in data set [4] (single 400 mg IMB-1018972, fasted) is listed as “Four”. Besides, in data set [5] (nineteen patients on drug), the Flushing result is “no flushing reported”, the “Number of adverse events” value is given as “nine”, the “Number of drug-related AEs” value is given as “three” and the “Subjects reporting adverse events” value is reported as “Seven”. The “Subjects with drug-related AEs” value in data set [5] (nineteen patients on drug) was “Two”. In data set [5] (nineteen patients on drug about one to eight weeks), the SAEs entry is “no SAEs”. For the same compound, the Tolerability result in data set [5] (overall) was “well-tolerated”. For the same compound, in data set [6], the “IMB-1018972 (parent) in plasma samples” value is “could be measured in only few plasma samples”. Further, in data set [7] (setting [8]), the “Cardiac energetics (PCr/ATP)” value is “significant and meaningful increase”; the “Myocardial steatosis (myocardial triglycerides)” value is given as “highly significant reduction”. The Mean fasting glucose entry in data set [7] (short-term administration, cohorts of the study) is listed as “significant reduction”. Also, the Body weight result in data set [7] (short-term administration, combined 4- and 8-week cohorts) is “significant weight loss”.
